“Also recorded” adds a separate entry of the source.
Assays:
[1] = biological target: hMC4R WT (Homo sapiens, UniProt P32245); assay: cAMP production, hMC4R WT in HEK-293 cells; assay type: cell-based
[2] = biological target: hMC4R/TM2 hMC1R (Homo sapiens, UniProt P32245, A89S/G98V/I102A/M91L/S85C/S99L/V88L/V95G); assay: cAMP production, hMC4R/TM2hMC1R chimera; assay type: cell-based
[3] = biological target: hMC1R WT (Homo sapiens, UniProt Q01726); assay: cAMP production, hMC1R WT in HEK-293 cells; assay type: cell-based
[4] = biological target: hMC4R/TM3 hMC1R (Homo sapiens, UniProt P32245+Q01726); assay: cAMP production, hMC4R/TM3hMC1R chimera
[5] = biological target: hMC4R/TM4 hMC1R (Homo sapiens, UniProt P32245+Q01726); assay: cAMP production, hMC4R/TM4hMC1R chimera
[6] = test system: hMC4R/TM5 hMC1R; assay: cAMP production, hMC4R/TM5hMC1R chimera; conditions: Fig. 4B, 4D
[7] = biological target: hMC4R/TM6 hMC1R (Homo sapiens, UniProt P32245+Q01726); assay: cAMP production, hMC4R/TM6hMC1R chimera
Sequence of hMC4R/TM6 hMC1R (P32245 1-251 limits assumed, other chains not shown): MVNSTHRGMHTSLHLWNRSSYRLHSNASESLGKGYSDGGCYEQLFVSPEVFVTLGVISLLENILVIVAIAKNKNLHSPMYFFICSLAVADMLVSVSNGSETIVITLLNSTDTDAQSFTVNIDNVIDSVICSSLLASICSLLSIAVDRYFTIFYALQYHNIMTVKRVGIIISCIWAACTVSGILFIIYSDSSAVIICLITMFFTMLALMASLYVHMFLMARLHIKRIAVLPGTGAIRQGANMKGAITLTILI
Sequence of hMC4R/TM6 hMC1R (P32245 271-332 limits assumed, other chains not shown): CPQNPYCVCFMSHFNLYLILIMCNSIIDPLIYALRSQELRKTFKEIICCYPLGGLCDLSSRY

Sequence of hMC1R WT (Q01726 whole entry): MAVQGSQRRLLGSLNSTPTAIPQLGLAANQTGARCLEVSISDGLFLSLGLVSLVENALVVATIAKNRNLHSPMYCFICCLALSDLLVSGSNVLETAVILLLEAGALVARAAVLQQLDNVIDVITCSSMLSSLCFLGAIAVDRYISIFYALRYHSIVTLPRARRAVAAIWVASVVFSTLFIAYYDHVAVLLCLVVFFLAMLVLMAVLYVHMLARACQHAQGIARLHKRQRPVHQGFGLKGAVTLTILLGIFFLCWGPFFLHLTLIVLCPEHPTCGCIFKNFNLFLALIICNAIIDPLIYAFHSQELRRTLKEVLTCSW
Sequence of hMC4R WT (P32245 whole entry): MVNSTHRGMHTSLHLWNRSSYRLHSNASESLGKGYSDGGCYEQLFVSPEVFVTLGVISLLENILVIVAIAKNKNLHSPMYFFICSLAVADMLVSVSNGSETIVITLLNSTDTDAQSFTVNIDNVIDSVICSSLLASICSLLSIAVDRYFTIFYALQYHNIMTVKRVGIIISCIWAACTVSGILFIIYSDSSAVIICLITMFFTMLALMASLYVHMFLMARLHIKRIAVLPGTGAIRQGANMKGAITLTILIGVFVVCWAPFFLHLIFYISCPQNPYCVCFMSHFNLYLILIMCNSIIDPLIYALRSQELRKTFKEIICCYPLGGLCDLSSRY
Sequence of hMC4R/TM3 hMC1R (P32245 1-121 limits assumed): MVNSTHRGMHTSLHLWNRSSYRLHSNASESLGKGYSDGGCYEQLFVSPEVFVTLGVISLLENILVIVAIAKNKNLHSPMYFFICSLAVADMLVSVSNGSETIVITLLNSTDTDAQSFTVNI
Sequence of hMC4R/TM3 hMC1R (Q01726 117-137 limits assumed): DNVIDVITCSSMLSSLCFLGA
Sequence of hMC4R/TM3 hMC1R (P32245 143-332 limits assumed): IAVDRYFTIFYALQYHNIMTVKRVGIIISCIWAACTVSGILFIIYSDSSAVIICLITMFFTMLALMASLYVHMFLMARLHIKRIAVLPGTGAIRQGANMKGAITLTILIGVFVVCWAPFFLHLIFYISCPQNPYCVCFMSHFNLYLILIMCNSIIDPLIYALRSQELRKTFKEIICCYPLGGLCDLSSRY
Sequence of hMC4R/TM4 hMC1R (P32245 1-172 limits assumed, other chains not shown): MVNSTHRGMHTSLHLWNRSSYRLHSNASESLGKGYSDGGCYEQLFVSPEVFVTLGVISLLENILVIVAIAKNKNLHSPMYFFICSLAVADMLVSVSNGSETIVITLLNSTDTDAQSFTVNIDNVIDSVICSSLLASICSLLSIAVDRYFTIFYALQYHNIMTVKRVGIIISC
Sequence of hMC4R/TM4 hMC1R (P32245 188-332 limits assumed, other chains not shown): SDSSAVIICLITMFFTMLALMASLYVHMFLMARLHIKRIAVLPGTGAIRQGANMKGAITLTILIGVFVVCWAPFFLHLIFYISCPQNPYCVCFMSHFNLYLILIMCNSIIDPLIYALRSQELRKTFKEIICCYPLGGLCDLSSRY
Sequence of hMC4R/TM2 hMC1R (P32245 whole entry S85C/V88L/A89S/M91L/V95G/G98V/S99L/I102A): as the sequence (P32245 whole entry) above, with S85C, V88L, A89S, M91L, V95G, G98V, S99L, I102A counted along it

EC50 [1]: 35 nM
EC50 [2]: 2.9 ± 0.3 nM
EC50 [3]: 2.3 ± 0.5 nM
EC50 [4]: 3.3 ± 0.5 nM
EC50 [5]: 3.1 ± 0.3 nM
EC50 [7]: 3.2 ± 0.3 nM
Compound: CCCC[C@H](NC(=O)[C@@H](NC(=O)[C@@H](N)Cc1ccc(O)cc1)C(C)C)C(=O)NCC(=O)N1CCC[C@H]1C(=O)N[C@H](Cc1ccccc1)C(=O)N[C@@H](CCCNC(=N)N)C(=O)N[C@@H](Cc1c[nH]c2ccccc12)C(=O)N[C@@H](CC(=O)O)C(=O)N[C@@H](CCCNC(=N)N)C(=O)N[C@@H](Cc1ccccc1)C(=O)NCC(N)=O [[DPhe^6]-γ-MSH, H-Tyr-Val-Nle-Gly-Pro-DPhe-Arg-Trp-Asp-Arg-Phe-Gly-NH2]
cAMP production, potency and agonism (in words) ([1]; Fig. 2B, 2D): dose-dependently increased cAMP generation; also recorded: non selective agonist for the MC1R and MC4R
cAMP potency (in words) ([2]; Fig. 3B, 3D): did not significantly alter [DPhe^6]-γ-MSH potency
cAMP production, potency and agonism (in words) ([3]; Fig. 2B, 2D): dose-dependently increased cAMP generation; also recorded: non selective agonist for the MC1R and MC4R
cAMP potency (in words) ([4]; Fig. 3B, 3D): did not significantly alter [DPhe^6]-γ-MSH potency
cAMP potency (in words) ([5]; Figs. 3 and 4): did not significantly alter [DPhe^6]-γ-MSH potency
cAMP potency (in words) [6]: did not significantly alter [DPhe^6]-γ-MSH potency
cAMP potency (in words) ([7]; Fig. 4B, 4D): did not significantly alter [DPhe^6]-γ-MSH potency

Reference: paper PMC2701352 (Biochemical pharmacology, 2008)
